According to patent US20220010300A1, “METHODS OF TREATING NEURODEGENERATIVE DISORDERS AND IDENTIFYING TARGETS THEREFORE” (The Board of Trustees of the Leland Stanford Junior …, priority 2019, published 2022):

Key:
[1] = tested on: BV-2 cells; experiment: BODIPY in vitro staining of BV-2 cells (confocal counting of BODIPY+ cells); assay type: cell-based, mouse
Method: (§1) To induce lipid droplet formation, subconfluent BV-2 cells were treated for 18 hours with 5 μg/ml LPS (Lipopolysaccharide from E. coli, Sigma) in DMEM+5% FBS. Controls received vehicle solution (PBS) only. To inhibit lipid droplet formation, BV-2 cells were pre-treated with 1 μM Triacsin C (Cayman Chemical) or vehicle (saline) in DMEM+5% FBS. 30 min after adding Triacsin C, LPS or LPS-vehicle solution were added and cells were co-treated with Triacsin C and LPS for 18 hours.
BV-2 cells were seeded at 5×10^4 cells on poly-L-lysine coated glass coverslips in DMEM+5% FBS. Following specific treatments, cells were fixed in 4% PFA for 30 min, washed 3× in PBS and incubated in PBS with BODIPY™ 493/503 (1:1000 from 1 mg/ml stock solution in DMSO; ThermoFisher) and Hoechst 33342 (1:2000, ThermoFisher) for 10 min at RT. Sections were washed twice in PBS and mounted on microscope slides with Vectashield (H-1000, Vector Laboratories). Four randomly selected visual fields per coverslip were photographed (40× magnification) using a confocal scanning laser microscope (LSM 700, Zeiss) with LSM software (ZEN 2011). To analyze the percentage of lipid droplet-containing BV-2 cells, numbers of total Hoechst^+ cells and of Hoechst^+ cells with BODIPY^+ lipid droplets were counted and the percentage of BODIPY^+BV-2 cells was calculated.

[2] = tested on: BV-2 cells; experiment: BODIPY fluorescence of BV-2 cells by flow cytometry; assay type: cell-based, mouse
Method: as §1

[3] = tested on: BV-2 cells; experiment: In vitro phagocytosis assay (pHrodo red Zymosan uptake); assay type: cell-based, mouse
Method: as §1
For in vitro phagocytosis assays, BV-2 cells were split into 96 well plates at 1000 cells per well in DMEM+5% FBS and treated with LPS, Triacsin C and vehicle solutions for 18 hours. Following specific treatments, 5 ng pHRodo Red Zymosan™ Bioparticles (Thermo Fisher Scientific P35364) in 100 μl DMEM+5% FBS were added per well. Four phase contrast and red fluorescent images per well were acquired every 2 hours for 16 hours using the Incucyte S3 live cell analysis system (Essen Bioscience). For each time point, phagocytosis was calculated by normalizing red fluorescent area to phase confluence.

[4] = tested on: BV-2 cells; experiment: ROS assay (CellROX fluorescence, microscopy and flow cytometry); assay type: cell-based, mouse
Method: To measure ROS in BV-2 cells, cells were split into 24 well plates at 5×10^4 cells per well in DMEM+5% FBS and treated with LPS, Triacsin C and vehicle solutions for 18 hours. Next, cells were incubated in DMEM+5% FBS with CellROX™ Orange (1:500, Invitrogen) for 30 min at 37° C., washed twice in PBS, and CellROX™ Orange Intensity was examined by fluorescence microscopy (Keyence Corp., Osaka, Japan). Following microscopic analysis, cells were detached using TripLE, transferred to FACS tubes and CellROX™ Orange intensity was analyzed on BD AccuriC6 flow cytometer.

[5] = tested on: microglia in the hippocampus; experiment: LPS injections in young mice, BODIPY/Iba1 staining of the hippocampus; assay type: in vivo, mouse; settings: 3-month-old mice, i.p. 1 mg LPS/kg BW once daily for four days, compared with vehicle treated controls
Method: 3-month-old wild type mice were injected with LPS (Lipopolysaccharide from E. coli, Sigma), i.p. 1 mg LPS/kg body weight once daily for four consecutive days. Control mice were injected with body weight corresponding volumes of PBS. 24 hours after the last LPS injection mice were euthanized, brains were extracted and brain tissue was processed for immunohistochemistry staining (see Perfusion and tissue processing and Immunohistochemistry and BODIPY staining).
Mice were anesthetized using Avertin (Tribromoethanol) and transcardially perfused with 0.9% NaCl solution. Brains were extracted, fixed in 4% paraformaldehyde for 48 hours, cryoprotected in 30% sucrose and then sectioned sagitally or coronally ([…]) using a freezing microtome (Leica). […]
For quantification of BODIPY^+ microglia, of CD68^hi microglia, of BODIPY^+ lipid droplet numbers and of lipid droplet size, analyses were performed blinded on coded slides. […]
To analyze the percentage of lipid droplet-containing microglia, numbers of total TMEM119^+ or lba1^+ cells and of TMEM119+BODIPY^+ or lba1+BODIPY^+ cells were counted and the percentage of BODIPY^+ microglia was calculated. To assess the percentage of CD68^hi cells, BODIPY^−lba1^+ and BODIPY^+lba1^+ cells with clearly visible CD68 immunoreactive particles were counted and normalized to total BODIPY^−lba1^+ and BODIPY^+lba1^+ cells.

[6] = tested on: hippocampal LD-low and LD-high microglia; experiment: Cytokine assay on acutely isolated primary microglia (multiplex array); assay type: cell-based, mouse; settings: aged mice, 100 ng/ml LPS for 8 hours; IL-10, CCL3, CCL4, IL-6, CCL5, TNF-α, IL-1β, IL-1α, CXCL1, CXCL10
Method: Primary microglia from hippocampi of 3-month (young) and 20-month-old (aged) wild type mice were isolated as described above (see Microglia Isolation, hippocampi from 3 mice were pooled per age group). CD11b^+CD45^lo primary microglia from young mice, and CD11b^+CD45^lo primary microglia sorted for BODIPY^lo and BODIPY^hi cells from aged mice were sorted into 5% FBS-containing microglial culture medium (DMEM/F12, 1% Pen/Strep; 2 mM glutamine; 5 ug/mL N-acetyl cysteine; 5 ug/mL insulin; 100 ug/mL apo-transferrin; 100 ng/mL sodium selenite; 2 ng/mL human TGF-2; 100 ng/mL murine IL-34; 1.5 ug/mL ovine wool cholesterol; 10 ug/mL heparin sulfate)s. Cells were seeded into 96 well plates at 5000 cells per well in 100 μl microglia culture medium with 5% FBS and incubated for 30 min in the incubator (37° C., 5% CO2). Next, cells were treated with 100 ng/ml LPS or PBS for 8 hours, and supernatant was collected and secreted signaling proteins were measured in culture supernatants using the ‘Mouse Cytokine/Chemokine Array 31-Plex’ from Eve Technologies (Canada).

[7] = tested on: BV-2 cells; experiment: Iodo-BODIPY irradiation assay with Calcein AM live cell staining; assay type: cell-based, mouse; settings: LPS 5 μg/ml for 18 hours, 3.8 μM iodo-BODIPY for 30 min, green LED irradiation for 3 hours
Method: BV-2 cells were treated for 18 hours with 5 μg/ml LPS in DMEM with 5% FBS to induce lipid droplet formation. Controls received vehicle solution (PBS) only. Cells were washed twice in PBS and incubated in 3.8 μM iodo-BODIPY (see FIG. 8, Panel A; iodo-BODIPY was kindly provided by Prof. Carolyn Bertozzi, Chemistry department, Stanford University) in PBS for 30 min in the incubator (5% CO2, 37° C.). Cells were washed twice in PBS and then irradiated under visible light (green LED; 9 W, 150 mA, 2000 lux) for 3 hours at RT. Non-irradiated cells were kept at RT for 3 hours without irradiation.
To assess cell viability after photoirradiation, irradiated and non-irradiated BV-2 cells were stained with 1 μM Calcein AM (Invitrogen) in PBS for 15 min at 37° C. Cells were then examined by fluorescence microscopy (Keyence Corp., Osaka, Japan) and the percentage of green, Calcein^+BV-2 cells (live cells) of total methyl-di-iodo BODIPY^+ cells (red, lipid droplet containing cells) was calculated.

[8] = 1 μM Triacsin C co-treated with LPS (5 μg/ml) for 18 hours

With CCC/C=C/C/C=C/C=C/C=N/NN=O [Triacsin C] the “effect on LPS-induced increase in BODIPY+ cells” value [1, 8] was “abolished the LPS-induced increase”, the “effect on BODIPY+ signal in LPS-stimulated BV-2 cells by flow cytometry” value [2, 8] was “inhibited an increase” and the “pHrodo red Zymosan phagocytosis in LPS-treated cells” value [3, 8] was “increased Zymosan phagocytosis”. The “ROS levels (CellROX fluorescence) in LPS-treated cells” value [4, 8] was “significantly reduce ROS levels”.

Lipopolysaccharide from E. coli [LPS] was tested, and the “increase in lipid droplet containing microglia (BODIPY+Iba1+) in the hippocampus” value [5] was “twofold increase”, the “increase of lipid droplet containing BODIPY+ BV-2 cells” value ([1]; 5 μg/ml LPS for 18 hours, compared with control BV-2 cells) was 5 fold and the “BODIPY+ fluorescence by flow cytometry” value ([2]; 5 μg/ml LPS for 18 hours) was “significantly increased”. The “phagocytosis (pHrodo red Zymosan uptake) in BV-2 cells” value ([3]; 5 μg/ml LPS for 18 hours) was “significantly increased phagocytosis”, the “ROS generation (CellROX fluorescence) in BV-2 cells” value ([4]; 5 μg/ml LPS for 18 hours) was “induced elevated ROS generation” and the “cytokine release of LD-high microglia compared to LD-low microglia upon LPS treatment” value [6] was “strongly exaggerated release of multiple cytokines”.

iodo-BODIPY [iBP] was tested, and the “cell killing after photoirradiation of iBP+ BV-2 cells (Calcein live cell imaging)” value [7] was “selectively killed lipid-droplet rich cells”.
